Test [1] deals with T1, Nluc::NPR-11 (Caenorhabditis elegans, UniProt Q18179).
T1 construct: expressed in transfected cells; host or cells: transgenic C. elegans (extrachromosomal array, npr-11 knockout background), incised young adult worms
Kind of test: biochemical. Format: binding, C. elegans. The protocol: (§1) All measurements were conducted using synchronized young adult worms (1 day post L4). Individuals were washed twice with HBSS (Hanks’ balanced salt solution with 25 mM HEPES, pH 7.4, 37 °C) and the number of worms/ μl was calculated.
(§2) For luminescence measurements of intact worms, animals (1; 10; 50; 100 or 500) were directly transferred into the wells of a white flat-bottom 384-well plate in 50 μl HBSS buffer. Worms to be cut were pre-washed with M9 + 0.1% Tween to avoid sticking of worms to the dish and subsequently transferred in 2 ml of HBSS. Incisions were made in the middle of the body with a scalpel blade and worms were immediately afterwards transferred with a glass pipette into HBSS buffer on ice. For mechanically cracking, a worm suspension was homogenized in tubes with 150 μl HBSS and six glass beads (Ø = 3 mm) using with a Precellys homogenizer (Bertin instruments, France) for 40 s at 5000 rpm. Samples were placed on ice until further usage.
For BRET binding assays in vivo, the nanoluciferase (Nluc) was applied as energy donor and either peptides labeled with the TAM fluorophore or the mNeonGreen fluorescent protein fused to a receptor served as acceptor.
30 Nluc-expressing worms with incisions in 50 μl BRET buffer were incubated with dissolving buffer or peptide solutions of final concentrations ranging from 0.05–10 μM in a 384-well plate. During a 25 min incubation with gentle shaking, 10 μl Nano-Glo Live Cell Reagent (N2011, Promega, USA) of a 5x stock were added according to manufacturer’s instructions after 15 min to each well. Competition-binding assays were performed similarly, but additionally, unlabeled peptide (final concentrations 0.016–10 μM) was pipetted into each well and 5 μl of a 10x stock Nano-Glo Live cell reagent was applied after 15 min.
Luminescence (L) and fluorescence (F) were detected with a microplate plate reader (Tecan Spark) using the following filter set: donor = 430–470 nm, acceptor = 550–700 nm with 1000 ms integration time. BRET was calculated by dividing F values by L values. For each experiment, the background signal of donor-only cells was subtracted, such that the BRET ratio at 0 μM ligand equals 0.00. In Fig. 3B (left) and Fig. 3D, the mean of n = 4 (NPR-11) or n = 3 (LAT-1) independent, individually background-corrected single experiments is presented.

Test [2] deals with T2, NPR-11 (Caenorhabditis elegans, UniProt Q18179).
T2 sequence (Q18179 1-402): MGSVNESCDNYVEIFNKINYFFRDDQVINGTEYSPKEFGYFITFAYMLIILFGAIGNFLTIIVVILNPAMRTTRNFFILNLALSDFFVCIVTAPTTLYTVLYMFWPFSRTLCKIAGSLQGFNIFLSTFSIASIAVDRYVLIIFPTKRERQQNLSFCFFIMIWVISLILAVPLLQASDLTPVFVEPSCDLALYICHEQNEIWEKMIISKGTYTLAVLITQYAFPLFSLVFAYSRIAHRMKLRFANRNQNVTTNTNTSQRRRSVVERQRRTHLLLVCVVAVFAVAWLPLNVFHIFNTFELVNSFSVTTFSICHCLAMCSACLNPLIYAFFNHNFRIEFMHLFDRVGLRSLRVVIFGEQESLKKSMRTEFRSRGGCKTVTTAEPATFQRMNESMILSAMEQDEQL
Kind of test: cAMP reporter gene assay, transfected HEK293 cells (Fig. S3B). Format: cell-based, C. elegans. On the set-up: expressed in transfected cells; host or cells: HEK293 cells, co-transfected with reporter plasmid pGL4.29 [luc2P/CRE/Hygro]. The protocol: All in vitro experiments were carried out using either HEK293 cells (Homo sapiens, embryonic kidney, DSMZ (German Collection of Microorganisms and Cell Cultures) ACC 305) or COS-7 cells (African green monkey, cercopithecus aethiops, kidney, DSMZ (German Collection of Microorganisms and Cell Cultures) ACC 60). HEK293 cells were kept in Dulbecco’s Modified Eagle’s Medium (DMEM) with Ham’s F-12 (v/v) and 15% (v/v) heat-inactivated fetal calf serum (FCS), while COS-7 cells were cultured in DMEM with 10% (v/v) FCS and 1% (v/v) Penicillin-Streptomycin. All cells were kept at 37 °C under a humidified atmosphere (5% CO2).
NPR-11 activation was read out in the Gi/o pathway by a cAMP reporter gene assay in transiently transfected HEK293 cells as described previously. Briefly, HEK293 cells were grown to 70% confluency and transiently co-transfected with the receptor plasmid (2 μg) and the reporter gene plasmid pGL4.29 [luc2P/CRE/Hygro] (Promega; 2 μg) with MetafectenePro (Biontex). Cells were then re-seeded into 384-well plates. On the next day, the medium was removed, and the cells were stimulated with peptide solution (20 μl) containing 5 μM forskolin (stimulating intracellular cAMP levels) in DMEM and incubated for 4 h. Luciferase substrate OneGlo in lysis buffer (Promega) was added and incubated for 5 min. Luminescence was measured in a microplate reader (Tecan Spark). […]
(In general: Reporter assays use an easily measured gene product as a stand-in for the process of interest.)

The target in test [3] is T1, Nluc::NPR-11. In words: biochemical. Format: binding, C. elegans. The protocol:
as §1
as §2, with “usage. […]” for “usage.”
Luminescence (L) and fluorescence (F) were detected with a microplate plate reader (Tecan Spark) using the following filter set: donor = 430–470 nm, acceptor = 550–700 nm with 1000 ms integration time. BRET was calculated by dividing F values by L values. […]
This is another data set of the same source.

The next test has as its system NPR-11::Nluc. In words: Enhanced bystander BRET in vivo, NPR-11::Nluc and CAAX::mNG (Fig. 4C). On the set-up: species or system C. elegans. The method, then: Luminescence levels depended on the used strain, reaching (without ligand) approximately 2000 AU in Nluc::npr-11 animals and up to 32,000 AU in Nluc::lat-1 expressing worms. For enhanced bystander BRET analyses, 30 cut worms (APR716 and APR718) in 50 μl HBSS buffer were incubated for 10 min with 10 μl of Nano-Glo Live Cell Reagent (5x stock). Luminescence and fluorescence were measured once prior to peptide stimulation. Afterwards, FLP-34-1 (final concentration 5 μM) or H2O with 0.5% BSA and 2.5% DMSO as control were added to each well and luminescence and fluorescence was measured over the course of 80 min. The acceptor filter for this setting was altered to 505–605 nm, while the donor filter remained at 430–470 nm, as before.
For orientation: In BRET a luciferase serves as donor, and the signal depends on an acceptor being close.

The target of test [4] is T2, NPR-11. As to conditions: read-out: inhibition binding constant Ki; TAM-FLP-34-1 as fluorescent tracer; ref [35]; cited from earlier work.

For orientation: Kd means a measure of binding affinity in units of concentration. A higher Kd goes with lower affinity. As a reminder, the EC50 is the concentration at which the effect is half-maximal. Read a low EC50 as greater potency. As usually defined, the Ki is the equilibrium dissociation constant of an inhibitor or competing ligand from its target.

Residues, ends and D or L forms follow the SMILES beside them. No end group written: not given here. *: point of attachment. 5TAMRA = CN(C)c1ccc2c(c1)Oc1cc(N(C)C)ccc1C21OC(=O)c2cc(C(=O)*)ccc21 A value given as a limit tells only on which side of the number the result lay.

In turn, `CC[C@H](C)[C@H](NC(=O)[C@H](C)NC(=O)[C@H](CO)NC(=O)[C@H](C)NC(=O)[C@H](Cc1ccccc1)NC(=O)[C@@H](NC(=O)[C@H](CO)NC(=O)[C@@H](NC(=O)[C@H](CC(=O)O)NC(=O)[C@H](C)NC(=O)c1ccc2c(c1)C(=O)OC21c2ccc(N(C)C)cc2Oc2cc(N(C)C)ccc21)[C@@H](C)CC)[C@@H](C)O)C(=O)N[C@@H](CC(N)=O)C(=O)N[C@@H](CC(N)=O)C(=O)N[C@@H](C)C(=O)NCC(=O)N[C@@H](CCCNC(=N)N)C(=O)N[C@@H](CC(C)C)C(=O)N[C@@H](CCCNC(=N)N)C(=O)N[C@@H](Cc1ccc(O)cc1)C(N)=O` [TAM-FLP-34-1] (5TAMRA-ADISTFASAINNAGRLRY-NH2) displayed a dissociation constant Kd at Nluc::NPR-11 [1] of 1400 nM. The same compound returned an EC50 on NPR-11 [2] of 0.5 nM.

For ADISTFASAINNAGRLRY-NH2 [FLP-34-1], the Ki was 1100 nM at Nluc::NPR-11 [3] and 107 nM at NPR-11 [4]. For the same compound, the “time after which BRET increases again” value with NPR-11::Nluc (5 μM FLP-34-1) is reported as above 70 min. The “change of bystander BRET signal over time” value in the test with NPR-11::Nluc (5 μM FLP-34-1 vs untreated controls) is on record as “decrease of BRET signal”. For the same compound, on NPR-11 [2], the EC50 was determined as 2.3 nM.

The values above are taken from PMC8805316, “NanoBRET in C. elegans illuminates functional receptor interactions in real time” (BMC Molecular and Cell Biology, 2022).
